Measured values: patent US11339130B1 (Blade Therapeutics, Inc., priority 2016, dated 2022)
Where two headings read alike, the source gives them in different places.

Legend:
Type in all cases: biochemical
[1] = target: T1, Human Calpain 1/NS1 (Homo sapiens, UniProt P07384); assay: Calpain inhibition continuous fluorescence (FRET) assay, Human Calpain 1/NS1; settings: read-out: Human Calpain 1/NS1 IC50
T1 sequence (P07384 1-714): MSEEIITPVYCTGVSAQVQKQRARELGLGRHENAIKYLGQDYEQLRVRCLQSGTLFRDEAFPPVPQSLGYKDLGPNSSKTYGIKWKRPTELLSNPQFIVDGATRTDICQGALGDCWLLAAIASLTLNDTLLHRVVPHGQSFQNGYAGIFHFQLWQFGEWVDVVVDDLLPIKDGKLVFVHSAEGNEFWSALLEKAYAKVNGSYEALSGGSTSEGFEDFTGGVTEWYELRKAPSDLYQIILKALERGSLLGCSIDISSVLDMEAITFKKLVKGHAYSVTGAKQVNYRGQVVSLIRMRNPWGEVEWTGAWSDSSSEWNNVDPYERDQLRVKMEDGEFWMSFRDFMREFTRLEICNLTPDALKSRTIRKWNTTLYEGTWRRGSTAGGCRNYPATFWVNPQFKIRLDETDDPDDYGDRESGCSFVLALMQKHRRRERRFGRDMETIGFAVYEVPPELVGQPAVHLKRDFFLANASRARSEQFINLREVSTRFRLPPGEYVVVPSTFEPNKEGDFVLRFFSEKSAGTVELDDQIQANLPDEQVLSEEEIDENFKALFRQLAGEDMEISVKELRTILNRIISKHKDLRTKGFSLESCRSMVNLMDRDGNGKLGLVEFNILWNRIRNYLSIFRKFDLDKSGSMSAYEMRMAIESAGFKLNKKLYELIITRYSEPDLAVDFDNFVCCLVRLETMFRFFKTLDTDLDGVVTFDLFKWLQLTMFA
T1 sequence (P04632 1-268 partner): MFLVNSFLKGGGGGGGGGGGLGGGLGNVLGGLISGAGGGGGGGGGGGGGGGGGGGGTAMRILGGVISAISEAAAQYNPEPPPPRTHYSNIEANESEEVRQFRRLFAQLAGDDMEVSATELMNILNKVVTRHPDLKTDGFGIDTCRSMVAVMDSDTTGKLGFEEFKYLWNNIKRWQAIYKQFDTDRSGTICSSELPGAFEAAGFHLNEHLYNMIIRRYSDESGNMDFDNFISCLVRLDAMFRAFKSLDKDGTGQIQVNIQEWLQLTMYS
How it was run: (§1)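 Inhibitors were preincubated with calpain in 50 mM Tris pH 7.5, 100 mM NaCl, 1 mM DTT at 25C. Reactions were started with 5-FAM/QXL 520 FRET peptide substrate plus CaCl2 and read at 490/520 nm for 10 min. IC50s came from 4-parameter fits of slope rates (1-5 min).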

[2] = target: T2, Human Calpain 9/NS1 (Homo sapiens, UniProt O14815); assay: Calpain inhibition continuous fluorescence (FRET) assay, Human Calpain 9/NS1; settings: read-out: Human Calpain 9/NS1 IC50
T2 sequence (O14815 1-690): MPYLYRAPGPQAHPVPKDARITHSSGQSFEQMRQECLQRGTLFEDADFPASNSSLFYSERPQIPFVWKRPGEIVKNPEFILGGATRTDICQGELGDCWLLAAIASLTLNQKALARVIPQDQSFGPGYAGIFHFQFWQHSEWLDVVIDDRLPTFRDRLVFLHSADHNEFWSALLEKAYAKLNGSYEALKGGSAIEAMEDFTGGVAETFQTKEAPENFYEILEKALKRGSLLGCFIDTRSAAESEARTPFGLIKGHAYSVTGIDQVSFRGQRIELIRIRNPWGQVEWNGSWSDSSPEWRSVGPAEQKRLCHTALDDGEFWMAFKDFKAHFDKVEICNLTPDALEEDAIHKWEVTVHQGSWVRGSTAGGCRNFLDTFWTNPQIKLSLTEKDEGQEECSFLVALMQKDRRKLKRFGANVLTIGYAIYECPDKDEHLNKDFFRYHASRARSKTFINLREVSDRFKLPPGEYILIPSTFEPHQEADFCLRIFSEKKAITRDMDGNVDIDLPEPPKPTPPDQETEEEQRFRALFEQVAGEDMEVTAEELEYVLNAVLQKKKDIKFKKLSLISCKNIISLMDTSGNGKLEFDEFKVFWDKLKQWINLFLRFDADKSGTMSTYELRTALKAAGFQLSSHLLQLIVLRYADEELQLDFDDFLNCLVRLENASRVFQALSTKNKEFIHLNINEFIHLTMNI
T2 sequence (P04632 1-268 partner): T1 sequence (P04632 1-268 partner)
How it was run: as §1

[3] = target: T3, Human Calpain 2/NS1 (Homo sapiens, UniProt P17655); assay: Calpain inhibition continuous fluorescence (FRET) assay, Human Calpain 2/NS1; settings: read-out: Human Calpain 2/NS1 IC50
T3 sequence (P17655 1-700): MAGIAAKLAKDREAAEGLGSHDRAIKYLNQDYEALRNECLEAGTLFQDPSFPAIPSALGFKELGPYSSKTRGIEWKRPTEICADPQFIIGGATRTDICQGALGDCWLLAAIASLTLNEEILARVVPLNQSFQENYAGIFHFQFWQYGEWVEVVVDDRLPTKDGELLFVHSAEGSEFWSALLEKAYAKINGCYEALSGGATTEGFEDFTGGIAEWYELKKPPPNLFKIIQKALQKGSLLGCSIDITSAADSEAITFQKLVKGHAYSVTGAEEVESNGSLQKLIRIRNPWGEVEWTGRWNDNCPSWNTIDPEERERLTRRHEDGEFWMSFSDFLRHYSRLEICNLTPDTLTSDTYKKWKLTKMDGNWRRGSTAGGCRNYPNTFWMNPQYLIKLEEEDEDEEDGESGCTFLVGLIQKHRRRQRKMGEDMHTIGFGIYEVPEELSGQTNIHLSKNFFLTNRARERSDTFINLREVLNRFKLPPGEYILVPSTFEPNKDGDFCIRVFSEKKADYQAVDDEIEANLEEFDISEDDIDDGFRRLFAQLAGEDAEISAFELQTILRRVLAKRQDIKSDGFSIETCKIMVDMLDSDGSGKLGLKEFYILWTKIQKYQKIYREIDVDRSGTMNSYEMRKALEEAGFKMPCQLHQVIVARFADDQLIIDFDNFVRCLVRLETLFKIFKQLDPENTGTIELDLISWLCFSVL
T3 sequence (P04632 1-268 partner): T1 sequence (P04632 1-268 partner)
How it was run: as §1

Row | Structure (SMILES) | IC50 ([1]; Column A) | IC50 ([2]; Column C) | IC50 ([3]; Column B) | IC50 [1] | IC50 [2] | IC50 [3]
1 | NC(=O)C(=O)C(Cc1ccccc1)NC(=O)c1ccn(Cc2ccccc2)n1 (stereo not drawn) [Compound 284, N-(4-amino-3,4-dioxo-1-phenylbutan-2-yl)-1-benzyl-1H-pyrazole-3-carboxamide] | > 10 µM | > 10 µM | > 10 µM | – | – | –
2 | Cc1nc(-c2cccc(C(F)(F)F)n2)c(C(=O)NC(Cc2ccccc2)C(=O)C(N)=O)o1 (stereo not drawn) [Compound 287] | < 3 µM | < 3 µM | 3 to 10 µM | – | – | –
3 | Cc1ncn(-c2ccccc2)c1C(=O)N[C@@H](Cc1ccccc1)C(=O)C(N)=O [Compound 290, (S)—N-(4-amino-3,4-dioxo-1-phenylbutan-2-yl)-4-methyl-1-phenyl-1H-imidazole-5-carboxamide] | < 3 µM | < 3 µM | < 3 µM | – | – | –
4 | NC(=O)C(=O)[C@H](Cc1ccccc1)NC(=O)c1c(Cl)ncn1-c1ccccc1 [Compound 291, (S)—N-(4-amino-3,4-dioxo-1-phenylbutan-2-yl)-4-chloro-1-phenyl-1H-imidazole-5-carboxamide] | < 3 µM | < 3 µM | < 3 µM | – | – | –
5 | Cc1cc(C(=O)N[C@@H](Cc2ccccc2)C(=O)C(=O)NC2CC2)n(-c2nc3ccccc3n2C)n1 [Compound 295, (S)—N-(4-(cyclopropylamino)-3,4-dioxo-1-phenylbutan-2-yl)-3-methyl-1-(1-methyl-1H-benzo[d]imidazol-2-yl)-1H-pyrazole-5-carboxamide] | > 10 µM | > 10 µM | > 10 µM | – | – | –
6 | COc1ccc2nc(-n3nc(C)cc3C(=O)N[C@@H](Cc3ccccc3)C(=O)C(N)=O)sc2c1 [Compound 297, (S)—N-(4-amino-3,4-dioxo-1-phenylbutan-2-yl)-1-(6-methoxybenzo[d]thiazol-2-yl)-3-methyl-1H-pyrazole-5-carboxamide] | > 10 µM | < 3 µM | 3 to 10 µM | – | – | –
7 | Cc1cc(C(=O)N[C@@H](Cc2ccccc2)C(=O)C(N)=O)n(-c2nc3c(C)cccc3s2)n1 [Compound 298, (S)—N-(4-amino-3,4-dioxo-1-phenylbutan-2-yl)-3-methyl-1-(4-methylbenzo[d]thiazol-2-yl)-1H-pyrazole-5-carboxamide] | > 10 µM | > 10 µM | > 10 µM | – | – | –
8 | NC(=O)C(=O)[C@H](Cc1ccccc1)NC(=O)c1conc1-c1ccccc1 [Compound 304, (S)—N-(4-amino-3,4-dioxo-1-phenylbutan-2-yl)-3-phenylisoxazole-4-carboxamide] | < 3 µM | < 3 µM | < 3 µM | – | – | –
9 | NC(=O)C(=O)[C@H](Cc1ccccc1)NC(=O)c1cc2ccccc2n1-c1ccccc1 [Compound 307, (S)—N-(4-amino-3,4-dioxo-1-phenylbutan-2-yl)-1-phenyl-1H-indole-2-carboxamide] | – | – | – | < 3 µM | < 3 µM | < 3 µM
10 | CCn1ncc(Cl)c1C(=O)N[C@@H](Cc1ccccc1)C(=O)C(N)=O [Compound 311, (S)—N-(4-amino-3,4-dioxo-1-phenylbutan-2-yl)-4-chloro-1-ethyl-1H-pyrazole-5-carboxamide] | – | – | – | < 3 µM | < 3 µM | < 3 µM
11 | Cc1nc(C(=O)NC(Cc2ccccc2)C(=O)C(N)=O)c(-c2ccccn2)o1 (stereo not drawn) [Compound 314, N-(4-amino-3,4-dioxo-1-phenylbutan-2-yl)-2-methyl-5-(pyridin-2-yl)oxazole-4-carboxamide] | – | – | – | 3 to 10 µM | 3 to 10 µM | 3 to 10 µM
12 | Cn1cc(C(=O)NC(Cc2ccccc2)C(=O)C(N)=O)c(-c2ccc(C(F)(F)F)nc2)n1 (stereo not drawn) [Compound 315, N-(4-amino-3,4-dioxo-1-phenylbutan-2-yl)-1-methyl-3-(6-(trifluoromethyl)pyridin-3-yl)-1H-pyrazole-4-carboxamide] | – | – | – | 3 to 10 µM | < 3 µM | 3 to 10 µM
13 | Cc1cccc(-c2nn(C)cc2C(=O)NC(Cc2ccccc2)C(=O)C(N)=O)n1 (stereo not drawn) [Compound 316, N-(4-amino-3,4-dioxo-1-phenylbutan-2-yl)-1-methyl-3-(6-methylpyridin-2-yl)-1H-pyrazole-4-carboxamide] | – | – | – | > 10 µM | 3 to 10 µM | > 10 µM
14 | Cc1ncc(C(=O)NC(Cc2ccccc2)C(=O)C(N)=O)n1-c1ccccc1 (stereo not drawn) [Compound 318, N-(4-amino-3,4-dioxo-1-phenylbutan-2-yl)-2-methyl-1-phenyl-1H-imidazole-5-carboxamide] | – | – | – | < 3 µM | < 3 µM | 3 to 10 µM
15 | Cc1cn(-c2ccccc2)c(C(=O)N[C@@H](Cc2ccccc2)C(=O)C(N)=O)n1 [Compound 319, (S)—N-(4-amino-3,4-dioxo-1-phenylbutan-2-yl)-4-methyl-1-phenyl-1H-imidazole-2-carboxamide] | – | – | – | < 3 µM | < 3 µM | < 3 µM
16 | NC(=O)C(=O)C(Cc1ccccc1)NC(=O)c1conc1-c1ncccn1 (stereo not drawn) [Compound 324, N-(4-amino-3,4-dioxo-1-phenylbutan-2-yl)-3-(pyrimidin-2-yl)isoxazole-4-carboxamide] | – | – | – | < 3 µM | 3 to 10 µM | < 3 µM
17 | Cc1nc(-c2ccccc2)c(C(=O)NC(Cc2cc(Cl)cc(Cl)c2)C(=O)C(N)=O)o1 (stereo not drawn) [Compound 390, N-(4-amino-1-(3,5-dichlorophenyl)-3,4-dioxobutan-2-yl)-2-methyl-4-phenyloxazole-5-carboxamide] | – | – | – | < 3 µM | < 3 µM | < 3 µM
18 | Cc1nc(-c2ccccc2)c(C(=O)N[C@@H](CC(C)(C)C)C(=O)C(N)=O)o1 [Compound 391, (S)—N-(1-amino-5,5-dimethyl-1,2-dioxohexan-3-yl)-2-methyl-4-phenyloxazole-5-carboxamide] | – | – | – | < 3 µM | < 3 µM | < 3 µM
19 | Cn1cc(C(=O)NC(Cc2ccccc2)C(=O)C(N)=O)c(C(=O)c2ccccc2)n1 (stereo not drawn) [Compound 395, N-(4-amino-3,4-dioxo-1-phenylbutan-2-yl)-3-benzoyl-1-methyl-1H-pyrazole-4-carboxamide] | – | – | – | > 10 µM | 3 to 10 µM | 3 to 10 µM
